Results reported in patent US4447453A, “Anti-peptic ulcer agent” (Chugai Seiyaku Kabushiki Kaisha, priority 1980, dated 1984).

Tests used:
[1] = Acute oral toxicity (LD50) in ddY mice; details: mouse, in vivo, male ddY mice, suspension in 2% aqueous gum arabic
Procedure: The compounds listed above have very low toxicity, and the first six compounds have following the LD50 values when they are administered orally to ddY strain male mice (5 weeks old and weighing from 26-30 g) in the form of a suspension in a 2% aqueous gum arabic: […]

[2] = tested on: ulcers developed in Shay rats; assay: Pylorus ligation (Shay) ulcer test in rats; format: in vivo, rat (Sprague-Dawley, male)
Procedure: Groups of 8-week-old Spraque-Dawley male rats each consisting of 10 members were starved for 48 hours, anaethesized with ether and had their pylorus ligated in accordance with the method of Shay et al. (Gasteroenterology, 5, 43-61, 1945). Immediately thereafter, they were administered the compounds of the present invention intra-duodenally or intraperitoneally. Eighteen hours later, they were killed with excess ether and the gastric mucus membrane was removed and observed under a stereoscopic microscope (×10). The diameter (mm) of the ulcers developed in each rat was summed and the sum was used as the ulcer index of each rat.
The activity of the compounds of the present invention to cure peptic ulcer was measured as in Example 1. The test compound was administered in the duodenum.

[3] = tested on: rats with stress-induced ulcer; assay: Restraint and water immersion stress ulcer test in rats (Takagi et al.); format: in vivo, rat (Sprague-Dawley, male); details: for inhibition in vivo at 50 mg/kg / inhibition in vivo at 100 mg/kg / inhibition in vivo at 200 mg/kg: Rattus norvegicus
Procedure: Groups of 7-week-old Sprague-Dawley male rats each consisting of 10 members were starved for 24 hours and administered orally the compounds of the present invention. Ten minutes later, they were confined in a restrainer cage according to the method of Takagi et al. (Japanese Journal of Pharmacology, 18, 9-18, 1968), and the cage was placed vertically in a water tank at 23°-24° C. until the rats were immersed in the water to the depth of the processus xiphoideus. Sixteen hours later, the rats were killed with excess ether and had their stomach removed. Each stomach was incised along the greater curvature after the surface of the gastric mucosa and serous membrane was lightly fixed with 1% formalin. The diameter (mm) of the ulcers developed in each rat was summed and the sum was used as the ulcer index for each rat.
The activity of the compounds of the present invention to cure peptic ulcer was measured as in Example 2.

[4] = Table 1, intra-duodenal, 50 mg/kg, 18 h
[5] = Table 1, intra-duodenal, 100 mg/kg, 18 h
[6] = Table 1, intra-duodenal, 200 mg/kg, 18 h
[7] = Table 1, intra-peritoneal, 50 mg/kg, 18 h
[8] = Table 2, oral, 50 mg/kg, 16 h immersion
[9] = Table 2, oral, 100 mg/kg, 16 h immersion
[10] = Table 2, oral, 200 mg/kg, 16 h immersion
[11] = Table 4, as in Example 2 (oral), 200 mg/kg
[12] = Table 3, administered in the duodenum, 100 mg/kg

## O=C(O)c1ccccc1Nc1cc(Cl)ccc1C(=O)O [Compound 1]
[1]
  LD50: 2100 mg/kg

## Cc1ccc(Nc2cc(Cl)ccc2C(=O)O)c(C(=O)O)c1 [Compound 2]
[2]; [4]
  inhibition: 87.8%
  ulcer index (means ± S.E.): 0.5 ± 0.3 mm
[2]; [5]
  inhibition: 92.7%
  ulcer index (means ± S.E.): 0.3 ± 0.3 mm
[2]; [6]
  inhibition: 100%
  ulcer index (means ± S.E.): 0 mm
[2]; [7]
  inhibition: 80.7%
  ulcer index (means ± S.E.): 0.8 ± 0.4 mm
[3]; [8]
  inhibition in vivo at 50 mg/kg: 22.5%
  ulcer index (means ± S.E.): 12.0 ± 6.2 mm
[3]; [9]
  inhibition in vivo at 100 mg/kg: 89.2%
  ulcer index (means ± S.E.): 1.7 ± 1.2 mm
[3]; [10]
  inhibition in vivo at 200 mg/kg: 100%
  ulcer index (means ± S.E.): 0 mm
[1]
  LD50: > 1500 mg/kg

## O=C(O)c1ccc(Cl)cc1Nc1cc(Cl)ccc1C(=O)O [Compound 3]
[2]; [4]
  inhibition: 33.7%
  ulcer index (means ± S.E.): 2.3 ± 0.7 mm
[2]; [5]
  inhibition: 78.0%
  ulcer index (means ± S.E.): 0.9 ± 0.6 mm
[2]; [6]
  inhibition: 100%
  ulcer index (means ± S.E.): 0 mm
[2]; [7]
  inhibition: 95.7%
  ulcer index (means ± S.E.): 0.3 ± 0.3 mm
[3]; [8]
  inhibition in vivo at 50 mg/kg: 23.3%
  ulcer index (means ± S.E.): 14.3 ± 3.9 mm
[3]; [9]
  inhibition in vivo at 100 mg/kg: 49.5%
  ulcer index (means ± S.E.): 9.4 ± 4.8 mm
[3]; [10]
  inhibition in vivo at 200 mg/kg: 92%
  ulcer index (means ± S.E.): 1.5 ± 0.8 mm
[1]
  LD50: > 2000 mg/kg

## Cc1ccc(C)c(C(=O)O)c1Nc1cc(Cl)ccc1C(=O)O [Compound 4]
[1]
  LD50: 3000 mg/kg

## Cc1c(Cl)ccc(C(=O)O)c1Nc1ccccc1C(=O)O [Compound 5]
[2]; [4]
  inhibition: 67.1%
  ulcer index (means ± S.E.): 1.3 ± 0.6 mm
[2]; [5]
  inhibition: 96.6%
  ulcer index (means ± S.E.): 0.1 ± 0.1 mm
[2]; [6]
  inhibition: 100%
  ulcer index (means ± S.E.): 0 mm
[2]; [7]
  inhibition: 100%
  ulcer index (means ± S.E.): 0 mm
[3]; [8]
  inhibition in vivo at 50 mg/kg: 38.5%
  ulcer index (means ± S.E.): 9.6 ± 4.4 mm
[3]; [9]
  inhibition in vivo at 100 mg/kg: 88.2%
  ulcer index (means ± S.E.): 1.8 ± 0.9 mm
[3]; [10]
  inhibition in vivo at 200 mg/kg: 100%
  ulcer index (means ± S.E.): 0 mm
[1]
  LD50: 1250 mg/kg

## Cc1ccc(C(=O)O)c(Nc2ccccc2C(=O)O)c1 [Compound 6]
[2]; [4]
  inhibition: 58.6%
  ulcer index (means ± S.E.): 1.4 ± 0.7 mm
[2]; [5]
  inhibition: 92.5%
  ulcer index (means ± S.E.): 0.3 ± 0.3 mm
[2]; [6]
  inhibition: 100%
  ulcer index (means ± S.E.): 0 mm
[2]; [7]
  inhibition: 48.6%
  ulcer index (means ± S.E.): 2.0 ± 0.7 mm
[3]; [8]
  inhibition in vivo at 50 mg/kg: 34.3%
  ulcer index (means ± S.E.): 12.1 ± 3.5 mm
[3]; [9]
  inhibition in vivo at 100 mg/kg: 92.9%
  ulcer index (means ± S.E.): 1.5 ± 1.1 mm
[3]; [10]
  inhibition in vivo at 200 mg/kg: 100%
  ulcer index (means ± S.E.): 0 mm
[1]
  LD50: > 2000 mg/kg

## COc1cc(Nc2ccccc2C(=O)O)c(C(=O)O)cc1OC [Compound 7]
[3]; [11]
  inhibition in vivo at 200 mg/kg: 98.4%
  ulcer index (means ± S.E.): 0.2 ± 0.1 mm

## COc1ccc(C(=O)O)c(Nc2cc(Cl)ccc2C(=O)O)c1 [Compound 8]
[2]; [12]
  inhibition: 100.0%
  ulcer index (means ± S.E.): 0 ± 0 mm
[3]; [11]
  inhibition in vivo at 200 mg/kg: 96.7%
  ulcer index (means ± S.E.): 1.7 ± 1.3 mm

## Cc1ccc(C(=O)O)c(Nc2cc(Cl)ccc2C(=O)O)c1C [Compound 9]
[2]; [12]
  inhibition: 80.1%
  ulcer index (means ± S.E.): 0.7 ± 0.7 mm
[3]; [11]
  inhibition in vivo at 200 mg/kg: 83.4%
  ulcer index (means ± S.E.): 6.5 ± 3.4 mm

## Cc1cc(Nc2ccccc2C(=O)O)c(C(=O)O)cc1C [Compound 10]
[2]; [12]
  inhibition: 100.0%
  ulcer index (means ± S.E.): 0 ± 0 mm
[3]; [11]
  inhibition in vivo at 200 mg/kg: 90.1%
  ulcer index (means ± S.E.): 3.8 ± 1.5 mm

## Cc1cc(C)c(C(=O)O)c(Nc2ccccc2C(=O)O)c1 [Compound 11]
[2]; [12]
  inhibition: 60.0%
  ulcer index (means ± S.E.): 1.4 ± 0.6 mm
[3]; [11]
  inhibition in vivo at 200 mg/kg: 96.9%
  ulcer index (means ± S.E.): 1.2 ± 0.9 mm

## Cc1cc(C(=O)O)c(Nc2ccccc2C(=O)O)cc1Cl [Compound 12]
[2]; [12]
  inhibition: 91.8%
  ulcer index (means ± S.E.): 0.3 ± 0.3 mm
[3]; [11]
  inhibition in vivo at 200 mg/kg: 96.7%
  ulcer index (means ± S.E.): 1.3 ± 0.7 mm

## Cc1cc(C)c(C(=O)O)c(Nc2cc(Cl)ccc2C(=O)O)c1 [Compound 13]
[2]; [12]
  inhibition: 50.0%
  ulcer index (means ± S.E.): 1.0 ± 0.7 mm
[3]; [11]
  inhibition in vivo at 200 mg/kg: 70%
  ulcer index (means ± S.E.): 11.6 ± 6.2 mm

## Cc1ccc(C(=O)O)c(Nc2ccccc2C(=O)O)c1C [Compound 14]
[2]; [12]
  inhibition: 78.5%
  ulcer index (means ± S.E.): 0.4 ± 0.4 mm
[3]; [11]
  inhibition in vivo at 200 mg/kg: 90.9%
  ulcer index (means ± S.E.): 3.5 ± 1.6 mm

## Cc1cc(Nc2cc(Cl)ccc2C(=O)O)c(C(=O)O)cc1C [Compound 15]
[3]; [11]
  inhibition in vivo at 200 mg/kg: 78.8%
  ulcer index (means ± S.E.): 8.2 ± 3.2 mm
